Assay results from US10287297B2, “Epoxyazulene derivatives useful for treating cancer and diabetes” (The United States of America, as represented by the …, priority 2015, dated 2019).

Legend:
Type in all cases: cell-based
SK-MEL-5 = test: NCI 60 cell assay, melanoma SK-MEL-5; settings: Homo sapiens, 48 h; SK-MEL-5 (melanoma); drug exposure two days, SRB endpoint; read-out: GI-50 value
Description: (§1) Samples were tested in the standard National Cancer Institute 60-cell line protocol. First, they were tested against all 60 cell lines in a single final concentration of 10 micromolar. Then, they were separately tested in five 10-fold dilutions. The drug exposure was two days, with an SRB endpoint.

HCT-116 = test: NCI 60 cell assay, colon HCT-116; settings: Homo sapiens, 48 h; HCT-116 (colon); drug exposure two days, SRB endpoint; read-out: GI-50 value
Description: as §1

A549/ATCC = test: NCI 60 cell assay, NSCLC A549/ATCC; settings: Homo sapiens, 48 h, drug exposure two days, SRB endpoint, read-out: GI-50 value
Description: as §1

HOP-62 = test: NCI 60 cell assay, NSCLC HOP-62; settings: Homo sapiens, 48 h; HOP-62 (NSCLC); drug exposure two days, SRB endpoint; read-out: GI-50 value
Description: as §1

HS 578T = test: NCI 60 cell assay, breast HS 578T; settings: Homo sapiens, 48 h; HS 578T (breast); drug exposure two days, SRB endpoint; read-out: GI-50 value
Description: as §1

MALME-3M = test: NCI 60 cell assay, melanoma MALME-3M; settings: Homo sapiens, 48 h; MALME-3M (melanoma); drug exposure two days, SRB endpoint; read-out: GI-50 value
Description: as §1

U251 = test: NCI 60 cell assay, CNS U251; settings: Homo sapiens, U-251, 48 h, drug exposure two days, SRB endpoint, read-out: GI-50 value
Description: as §1

BT-549 = test: NCI 60 cell assay, breast BT-549; settings: Homo sapiens, 48 h; BT-549 (breast); drug exposure two days, SRB endpoint; read-out: GI-50 value
Description: as §1

EKVX = test: NCI 60 cell assay, NSCLC EKVX; settings: Homo sapiens, 48 h, drug exposure two days, SRB endpoint, read-out: GI-50 value
Description: as §1

UACC-62 = test: NCI 60 cell assay, melanoma UACC-62; settings: Homo sapiens, 48 h; UACC-62 (melanoma); drug exposure two days, SRB endpoint; read-out: GI-50 value
Description: as §1

NCI-H226 = test: NCI 60 cell assay, NSCLC NCI-H226; settings: Homo sapiens, 48 h, drug exposure two days, SRB endpoint, read-out: GI-50 value
Description: as §1

SNB-75 = test: NCI 60 cell assay, CNS SNB-75; settings: Homo sapiens, 48 h; SNB-75 (CNS); drug exposure two days, SRB endpoint; read-out: GI-50 value
Description: as §1

LOX IMVI = test: NCI 60 cell assay, melanoma LOX IMVI; settings: Homo sapiens, 48 h, drug exposure two days, SRB endpoint, read-out: GI-50 value
Description: as §1

RPMI-8226 = test: NCI 60 cell assay, leukemia RPMI-8226; settings: Homo sapiens, 48 h; RPMI-8226 (leukemia); drug exposure two days, SRB endpoint; read-out: GI-50 value
Description: as §1

SN12C = test: NCI 60 cell assay, renal SN12C; settings: Homo sapiens, 48 h, drug exposure two days, SRB endpoint, read-out: GI-50 value
Description: as §1

IGROV1 = test: NCI 60 cell assay, ovarian IGROV1; settings: Homo sapiens, IGROV-1, 48 h, drug exposure two days, SRB endpoint, read-out: GI-50 value
Description: as §1

SK-OV-3 = test: NCI 60 cell assay, ovarian SK-OV-3; settings: Homo sapiens, 48 h; SK-OV-3 (ovarian); drug exposure two days, SRB endpoint; read-out: GI-50 value
Description: as §1

MCF7 = test: NCI 60 cell assay, breast MCF7; settings: Homo sapiens, 48 h, drug exposure two days, SRB endpoint, read-out: GI-50 value
Description: as §1

SF-268 = test: NCI 60 cell assay, CNS SF-268; settings: Homo sapiens, 48 h; SF-268 (CNS); drug exposure two days, SRB endpoint; read-out: GI-50 value
Description: as §1

COLO 205 = test: NCI 60 cell assay, colon COLO 205; settings: Homo sapiens, 48 h; COLO 205 (colon); drug exposure two days, SRB endpoint; read-out: GI-50 value
Description: as §1

HOP-92 = test: NCI 60 cell assay, NSCLC HOP-92; settings: Homo sapiens, 48 h; HOP-92 (NSCLC); drug exposure two days, SRB endpoint; read-out: GI-50 value
Description: as §1

NCI/ADR-RES = test: NCI 60 cell assay, ovarian NCI/ADR-RES; settings: Homo sapiens, 48 h, drug exposure two days, SRB endpoint, read-out: GI-50 value
Description: as §1

TK-10 = test: NCI 60 cell assay, renal TK-10; settings: Homo sapiens, 48 h; TK-10 (renal); drug exposure two days, SRB endpoint; read-out: GI-50 value
Description: as §1

CAKI-1 = test: NCI 60 cell assay, renal CAKI-1; settings: Homo sapiens, 48 h; CAKI-1 (renal); drug exposure two days, SRB endpoint; read-out: GI-50 value
Description: as §1

SF-295 = test: NCI 60 cell assay, CNS SF-295; settings: Homo sapiens, 48 h; SF-295 (CNS); drug exposure two days, SRB endpoint; read-out: GI-50 value
Description: as §1

SNB-19 = test: NCI 60 cell assay, CNS SNB-19; settings: Homo sapiens, 48 h; SNB-19 (CNS); drug exposure two days, SRB endpoint; read-out: GI-50 value
Description: as §1

SK-MEL-2 = test: NCI 60 cell assay, melanoma SK-MEL-2; settings: Homo sapiens, 48 h; SK-MEL-2 (melanoma); drug exposure two days, SRB endpoint; read-out: GI-50 value
Description: as §1

CC1=C2[C@@H](CC1)[C@]1(C)O[C@@](C(C)C)(C[C@H]1OC(=O)[C@H](C)O)[C@H]2OC(=O)C=Cc1ccccc1 [(Il), (3aR,4S,5R,7R,8S)-5-(((S)-2-hydroxypropanoyl)oxy)-7-isopropyl-1,4-dimethyl-2,3,3a,4,5,6,7,8-octahydro-4,7-epoxyazulen-8-yl cinnamate]
GI50 (SK-MEL-5): 13 µM
GI50 (HCT-116): 12 µM
GI50 (A549/ATCC): 13 µM
GI50 (HOP-62): 15 µM
GI50 (HS 578T): 0.098 µM
GI50 (MALME-3M): 15 µM
GI50 (U251): 14 µM
GI50 (BT-549): 1.4 µM
GI50 (EKVX): 10 µM
GI50 (UACC-62): 13 µM
GI50 (NCI-H226): 11 µM
GI50 (SNB-75): 24 µM
GI50 (LOX IMVI): 15 µM
GI50 (RPMI-8226): 8 µM
GI50 (SN12C): 0.21 µM
GI50 (IGROV1): 19 µM
GI50 (SK-OV-3): 15 µM
GI50 (MCF7): 10 µM
GI50 (SF-268): 1.3 µM
GI50 (COLO 205): 17 µM
GI50 (HOP-92): 6 µM
GI50 (NCI/ADR-RES): 0.42 µM
GI50 (TK-10): 17 µM
GI50 (CAKI-1): 7.2 µM
GI50 (SF-295): 11 µM
GI50 (SNB-19): 18 µM
GI50 (SK-MEL-2): 15 µM

CC(=O)O[C@@H]1C[C@]2(C(C)C)O[C@@]1(C)[C@@H]1CCC(C)=C1[C@@H]2OC(=O)C=Cc1ccccc1 [(Im), (3aR,4S,5R,7R,8S)-5-acetoxy-7-isopropyl-1,4-dimethyl-2,3,3a,4,5,6,7,8-octahydro-4,7-epoxyazulen-8-yl cinnamate]
GI50 (SK-MEL-5): 22 µM
GI50 (HCT-116): 16 µM
GI50 (A549/ATCC): 47 µM
GI50 (HOP-62): 89 µM
GI50 (HS 578T): 4.8 µM
GI50 (MALME-3M): 39 µM
GI50 (U251): 48 µM
GI50 (BT-549): 51 µM
GI50 (EKVX): 20 µM
GI50 (UACC-62): 26 µM
GI50 (NCI-H226): 29 µM
GI50 (SNB-75): 28 µM
GI50 (LOX IMVI): 30 µM
GI50 (RPMI-8226): 10 µM
GI50 (SN12C): 10 µM
GI50 (IGROV1): 100 µM
GI50 (SK-OV-3): 71 µM
GI50 (MCF7): 19 µM
GI50 (SF-268): 35 µM
GI50 (COLO 205): 32 µM
GI50 (NCI/ADR-RES): 23 µM
GI50 (TK-10): 93 µM
GI50 (CAKI-1): 13 µM
GI50 (SF-295): 39 µM
GI50 (SNB-19): 85 µM
GI50 (SK-MEL-2): 100 µM

CC1=C2[C@@H](CC1)[C@]1(C)O[C@@](C3CCCCC3)(C[C@H]1OC(=O)CO)[C@H]2OC(=O)C=Cc1ccccc1 [(Iq), (3aR,4S,5R,7R,8S)-7-cyclohexyl-5-(2-hydroxyacetoxy)-1,4-dimethyl-2,3,3a,4,5,6,7,8-octahydro-4,7-epoxyazulen-8-yl cinnamate]
GI50 (SK-MEL-5): 14 µM
GI50 (HCT-116): 9 µM
GI50 (A549/ATCC): 11 µM
GI50 (HOP-62): 14 µM
GI50 (HS 578T): 0.03 µM
GI50 (MALME-3M): 17 µM
GI50 (U251): 13 µM
GI50 (BT-549): 0.5 µM
GI50 (EKVX): 11 µM
GI50 (UACC-62): 15 µM
GI50 (NCI-H226): 12 µM
GI50 (SNB-75): 14 µM
GI50 (LOX IMVI): 14 µM
GI50 (RPMI-8226): 10 µM
GI50 (SN12C): 0.06 µM
GI50 (IGROV1): 19 µM
GI50 (SK-OV-3): 13 µM
GI50 (MCF7): 4.5 µM
GI50 (SF-268): 0.7 µM
GI50 (COLO 205): 15 µM
GI50 (HOP-92): 6 µM
GI50 (NCI/ADR-RES): 0.25 µM
GI50 (TK-10): 17 µM
GI50 (CAKI-1): 10 µM
GI50 (SF-295): 12 µM
GI50 (SNB-19): 17 µM
GI50 (SK-MEL-2): 17 µM

CC1=C2[C@@H](CC1)[C@]1(C)O[C@@](c3ccccc3)(C[C@H]1OC(=O)CO)[C@H]2OC(=O)C=Cc1ccccc1 [(Ir), (3aR,4S,5R,7R,8S)-5-(2-hydroxyacetoxy)-1,4-dimethyl-7-phenyl-2,3,3a,4,5,6,7,8-octahydro-4,7-epoxyazulen-8-yl cinnamate]
GI50 (SK-MEL-5): 15 µM
GI50 (HCT-116): 15 µM
GI50 (A549/ATCC): 15 µM
GI50 (HOP-62): 18 µM
GI50 (HS 578T): 0.033 µM
GI50 (MALME-3M): 20 µM
GI50 (U251): 13 µM
GI50 (BT-549): 0.71 µM
GI50 (EKVX): 15 µM
GI50 (UACC-62): 15 µM
GI50 (NCI-H226): 16 µM
GI50 (SNB-75): 15 µM
GI50 (LOX IMVI): 17 µM
GI50 (RPMI-8226): 13 µM
GI50 (SN12C): 11 µM
GI50 (IGROV1): 24 µM
GI50 (SK-OV-3): 19 µM
GI50 (MCF7): 10 µM
GI50 (SF-268): 1.4 µM
GI50 (COLO 205): 15 µM
GI50 (HOP-92): 14 µM
GI50 (NCI/ADR-RES): 0.34 µM
GI50 (TK-10): 23 µM
GI50 (CAKI-1): 13 µM
GI50 (SF-295): 14 µM
GI50 (SNB-19): 22 µM
GI50 (SK-MEL-2): 16 µM

CC1=C2[C@@H](CC1)[C@]1(C)O[C@@](C(C)C)(C[C@H]1OC(=O)CO)[C@H]2OC(=O)/C=C/c1ccccc1 [Compound (Ih)]
GI50 (SK-MEL-5): 35 µM
GI50 (HCT-116): 33 µM
GI50 (A549/ATCC): 33 µM
GI50 (HOP-62): 36 µM
GI50 (HS 578T): 0.015 µM
GI50 (MALME-3M): 43 µM
GI50 (U251): 35 µM
GI50 (BT-549): 0.14 µM
GI50 (UACC-62): 100 µM
GI50 (NCI-H226): 35 µM
GI50 (SNB-75): 2.9 µM
GI50 (LOX IMVI): 42 µM
GI50 (RPMI-8226): 27 µM
GI50 (SN12C): 20 µM
GI50 (IGROV1): 46 µM
GI50 (SK-OV-3): 44 µM
GI50 (MCF7): 32 µM
GI50 (SF-268): 2.6 µM
GI50 (COLO 205): 44 µM
GI50 (HOP-92): 100 µM
GI50 (NCI/ADR-RES): 0.13 µM
GI50 (TK-10): 100 µM
GI50 (CAKI-1): 1.07 µM
GI50 (SF-295): 40 µM
GI50 (SNB-19): 39 µM
GI50 (SK-MEL-2): 44 µM
